In patent publication US20220196635A1, “Fibrosis Assay” (Georgia Tech Research Corporation, priority 2020, published 2022):

How the values were obtained:
[1] = test system: normal human lung fibroblasts (NHLF); assay: Picrosirius red histology of contracted cell-ECM spheroids (mean fluorescence intensity); type: cell-based; conditions: different TGF-β1 conditions and control, 12 days of culture
Experimental: Contracted cell-ECM spheroids were harvested after 9-12 days of culture. These structures were prepared for histology, stained, and imaged as previously described for cultured spheroids. Briefly, the spheroids were washed with PBS and fixed in 4% paraformaldehyde (Alfa Aesar) for 1 hour at room temperature. The structures were stained with 0.5% methylene blue solution in PBS for 10 minutes at room temperature to aid in visualization during histology. Samples were placed in a cryomold containing optimal cutting temperature (OCT) compound, and flash frozen in cooled isopentane. 10 um sections were obtained using a CryoStar NX70 cryostat (Thermo Fisher Scientific).
Upon warming to room temperature, the sections were washed with PBS, permeabilized with 0.2% Triton-X 100, and blocked for 1 hour at room temperature with 4% bovine serum albumin (BSA) (Millipore Sigma). Sections were stained for 30 min at room temperature with Sirius red (0.1% of Sirius red in saturated aqueous picric acid), as previously described for collagen bundle staining. The samples were then washed with PBS, stained with DAPI for 15 minutes at room temperature, and coverslipped. […] Fluorescence was detected using Texas Red channel settings as previously described. Mean fluorescence intensity was quantified in ImageJ as the average pixel intensity within the sections.

[2] = test system: human primary lung fibroblasts (NHLF, IPF) in fibrin micro-scaffolds; assay: Contracting scar-in-a-drop fibroplasia assay (final projected area of cell-ECM spheroids); type: cell-based
Experimental: Human primary lung fibroblasts were used in all experiments presented in this paper. Unless otherwise noted, experiments utilized normal human lung fibroblasts (NHLF B lot #0000580583; Lonza) from a person with a history of smoking. For experiments evaluating donor variability, the following cells were utilized: NHLF A (NHLF lot #0000608197; Lonza) from a person, IPF A (IPF lot #0000627840; Lonza) from a person, and IPF B (IPF lot #6F5002; Lonza) from a person. All cells were cultured in fibroblast growth media (FGM; Lonza). Cells were passaged at 80-90% confluence and were sub-cultured in 1:3 ratios by trypsinization. When at the desired confluence, cells were washed with PBS and 0.05% trypsin solution was added to the flask. Cells were incubated for 2 min, and then harvested and centrifuged ([…], 5 min) in a conical tube. The supernatant was aspirated and the cell pellet was re-suspended in FBS-free culture media. When used in fibrin degradation experiments, cells were re-suspended at 2× the final desired concentration (2500 cells/ul unless otherwise indicated). To promote collagen production and contraction in addition to fibrin degradation, serum (bovine or human) were added at 2% or higher up to about 10%. Higher cell densities (about 2500 cells/ul and higher up to about 10,000 cells/ul) also promote collagen production. All experiments were conducted with cells at or below passage 8 except for high passage experiments conducted at passage 12. In all experiments, media was changed every 48 hours and any media additives (plasminogen, TGF-β1, drugs, etc.,) were included.
ATPS printing of fibrin micro-scaffolds has previously described above. Briefly, working solutions of PEG with 0.1 U/mL of thrombin were warmed to 37° C. and pipetted into a 96-well plate. For production of droplets, fibrinogen-DEX solutions with cell suspension were maintained at 37° C. and 4 μl per assay (unless otherwise noted) was pipetted directly into the PEG-thrombin media using a semi-automated repeater pipette (Repeater E3X; Eppendorf). Following dispensing of the DEX phase, the plates were placed in an ambient air incubator at 37° C. for 30 min to allow the thrombin to enzymatically crosslink the fibrinogen into a fibrin matrix (FIG. 6A). The PEG-enriched media was removed using a 12-channel micropipette and replaced with 100 μl of fully supplemented media in each well. When applicable, this media addition was supplemented with stimuli as detailed in example 17 below. For the duration of each experiment, assay plates were imaged every 2 hours at 4× with an automated cell culture monitoring system (Incucyte S3; Sartorius). As the assay proceeded, the fibroblasts progressively remodeled the fibrin scaffold as illustrated in FIG. 6C.
After each experiment, the final projected areas of the cell-ECM spheroids were determined from brightfield images taken at the final time point using a benchtop imaging system (2× objective; EVOS M7000; ThermoFisher). These images were then segmented through a process of pixel classification, thresholding, and morphological filtering in order to isolate the cell-ECM construct area from the background.
Pixel classification implemented Ilastic, a freely available image classification tool developed by the European Molecular Biology Laboratory. Ilastik's pixel classification utility implements a random forest classifier for quick and robust segmentation. In order to train the classifier, 10 characteristic images were selected to include different stages of ECM remodeling. In this step, each individual pixel is assigned a probability for belonging to layers for the background or the cell-ECM construct. Ilastik enables interactive training of the random forest classifier via user annotations of the training images. […]

TGF-β1: Human Recombinant TGF-β1 (Peprotech), pro-fibrotic, anti-fibrinolytic stimulus
mean fluorescence intensity (MFI) of picrosirius red stained sections, collagen organization [1]: relative consistency in organization of collagen networks | projected area of the final contracted cell-ECM spheroid ([2]; TGF-β1 0, 0.5, 2 ng/mL, NHLF): significant dose-dependent increase | contraction of cell-ECM construct ([2]; TGF-β1 10 ng/mL (highest concentration)): did not contract within the duration of the experiment | 50% contraction time ([2]; TGF-β1 stimulation, kernel density estimates (FIG. 12A)): increases in both 50% contraction time and final assay area
